The target of this data set is UBE3A-ATS. Kind of data set: mouse, dose not given. The settings on record: ASO.

HELM strings list units from the 5' end as sugar, base in round brackets, then linkage (d deoxyribose, r ribose, m 2'-O-methyl, p phosphodiester). Strings are as the collection lists them; they lack the last nucleoside at the 3' end of the tested compound. [moe] = 2'-O-(2-methoxyethyl) (MOE); [sp] = phosphorothioate linkage; [m5C] = 5-methylcytosine

As to “RNA1{[moe](T)[sp].[moe](T)p.[moe](A)p.[moe](A)p.[moe]([m5C])p.d(T)[sp].d(G)[sp].d([m5C])[sp].d(T)[sp].d(T)[sp].d([m5C])[sp].d(A)[sp].d([m5C])[sp].d([m5C])[sp].d(A)[sp].[moe](T)p.[moe](T)p.[moe](T)[sp].[moe](T)}$$$$ (last 3' nucleoside missing)”, the 3 h FOB score was found to be 1 score 0-7.

Substance “RNA1{[moe]([m5C])[sp].[moe]([m5C])p.[moe](T)p.[moe]([m5C])p.[moe](T)p.d(T)[sp].d([m5C])[sp].d([m5C])[sp].d(A)[sp].d(A)[sp].d(A)[sp].d(A)[sp].d(T)[sp].d(T)[sp].d([m5C])[sp].[moe](T)p.[moe]([m5C])p.[moe](A)[sp].[moe]([m5C])}$$$$ (last 3' nucleoside missing)” showed a 3 h FOB score of 0 score 0-7.

“RNA1{[moe](T)[sp].[moe](T)p.[moe](A)p.[moe]([m5C])p.[moe](T)p.d([m5C])[sp].d([m5C])[sp].d(T)[sp].d([m5C])[sp].d(T)[sp].d(G)[sp].d(G)[sp].d(T)[sp].d(G)[sp].d(T)[sp].[moe](G)p.[moe]([m5C])p.[moe](T)[sp].[moe](G)}$$$$ (last 3' nucleoside missing)” displayed a 3 h FOB score of 3.5 score 0-7.

For the substance “RNA1{[moe](A)[sp].[moe](T)p.[moe]([m5C])p.[moe](A)p.[moe]([m5C])p.d(A)[sp].d(T)[sp].d(T)[sp].d(A)[sp].d([m5C])[sp].d([m5C])[sp].d([m5C])[sp].d(A)[sp].d(T)[sp].d([m5C])[sp].[moe]([m5C])p.[moe](G)p.[moe](T)[sp].[moe](T)}$$$$ (last 3' nucleoside missing)”, the 3 h FOB score is 0 score 0-7.

In turn, “RNA1{[moe](G)[sp].[moe]([m5C])p.[moe](T)p.[moe]([m5C])p.[moe](A)p.d(G)[sp].d(T)[sp].d(T)[sp].d(A)[sp].d(G)[sp].d(G)[sp].d(T)[sp].d(T)[sp].d(A)[sp].d(G)[sp].[moe](T)p.[moe](G)p.[moe]([m5C])[sp].[moe](A)}$$$$ (last 3' nucleoside missing)” came in with a 3 h FOB score of 3.8 score 0-7.

“RNA1{[moe](A)[sp].[moe](G)p.[moe](G)p.[moe](A)p.[moe]([m5C])p.d([m5C])[sp].d(T)[sp].d([m5C])[sp].d(A)[sp].d(G)[sp].d(G)[sp].d(A)[sp].d(G)[sp].d(A)[sp].d(T)[sp].[moe](T)p.[moe](G)p.[moe](T)[sp].[moe](A)}$$$$ (last 3' nucleoside missing)” showed a 3 h FOB score of 2.3 score 0-7.

Substance “RNA1{[moe](T)[sp].[moe](T)p.[moe](G)p.[moe](T)p.[moe](A)p.d(G)[sp].d([m5C])[sp].d(T)[sp].d(A)[sp].d(T)[sp].d(A)[sp].d(G)[sp].d(G)[sp].d(T)[sp].d(G)[sp].[moe](T)p.[moe]([m5C])p.[moe](A)[sp].[moe]([m5C])}$$$$ (last 3' nucleoside missing)” showed a 3 h FOB score of 4 score 0-7.

In turn, “RNA1{[moe](G)[sp].[moe](T)p.[moe](G)p.[moe](T)p.[moe]([m5C])p.d(A)[sp].d(T)[sp].d(A)[sp].d(T)[sp].d(G)[sp].d(T)[sp].d(A)[sp].d(G)[sp].d([m5C])[sp].d(A)[sp].[moe](A)p.[moe](T)p.[moe](T)[sp].[moe](A)}$$$$ (last 3' nucleoside missing)” yielded a 3 h FOB score of 6.5 score 0-7.

“RNA1{[moe]([m5C])[sp].[moe](T)p.[moe](G)p.[moe](A)p.[moe](T)p.[moe]([m5C])p.d(A)[sp].d([m5C])[sp].d(A)[sp].d(T)[sp].d(T)[sp].d(A)[sp].d([m5C])[sp].d([m5C])[sp].d([m5C])[sp].d(A)[sp].[moe](T)p.[moe]([m5C])[sp].[moe]([m5C])}$$$$ (last 3' nucleoside missing)”: the 3 h FOB score worked out at 0 score 0-7.

Take “RNA1{[moe](G)[sp].[moe]([m5C])p.[moe](T)p.[moe](G)p.[moe](A)[sp].d(T)[sp].d([m5C])[sp].d(A)[sp].d([m5C])[sp].d(A)[sp].d(T)[sp].d(T)[sp].d(A)[sp].[moe]([m5C])p.[moe]([m5C])p.[moe]([m5C])[sp].[moe](A)}$$$$ (last 3' nucleoside missing)”: the 3 h FOB score is 1 score 0-7.

“RNA1{[moe](T)[sp].[moe](G)p.[moe]([m5C])p.[moe](A)p.[moe](T)p.[moe](A)p.d([m5C])[sp].d([m5C])[sp].d([m5C])[sp].d(A)[sp].d(G)[sp].d(G)[sp].d(G)[sp].d(T)[sp].d(A)[sp].d(G)[sp].[moe](G)p.[moe](A)[sp].[moe](T)}$$$$ (last 3' nucleoside missing)” showed a 3 h FOB score of 4 score 0-7.

“RNA1{[moe](G)[sp].[moe](A)p.[moe](T)p.[moe]([m5C])p.[moe](A)[sp].d([m5C])[sp].d(A)[sp].d(T)[sp].d(T)[sp].d(A)[sp].d([m5C])[sp].d([m5C])[sp].d([m5C])[sp].[moe](A)p.[moe](T)p.[moe]([m5C])[sp].[moe]([m5C])}$$$$ (last 3' nucleoside missing)” registered a 3 h FOB score of 2 score 0-7.

“RNA1{[moe](G)[sp].[moe]([m5C])p.[moe](T)p.[moe](T)p.[moe]([m5C])p.d(A)[sp].d([m5C])[sp].d([m5C])[sp].d(A)[sp].d(T)[sp].d(T)[sp].d(T)[sp].d(T)[sp].d(G)[sp].d(A)[sp].[moe]([m5C])p.[moe]([m5C])p.[moe](T)[sp].[moe](T)}$$$$ (last 3' nucleoside missing)”: the 3 h FOB score came to 2.2 score 0-7.

For the substance “RNA1{[moe]([m5C])[sp].[moe](A)p.[moe]([m5C])p.[moe](T)p.[moe]([m5C])p.d(A)[sp].d(T)[sp].d(T)[sp].d(T)[sp].d(T)[sp].d(G)[sp].d(T)[sp].d(T)[sp].d([m5C])[sp].d(A)[sp].[moe](G)p.[moe]([m5C])p.[moe](T)[sp].[moe](T)}$$$$ (last 3' nucleoside missing)”, the 3 h FOB score came out at 3 score 0-7.

With “RNA1{[moe](T)[sp].[moe]([m5C])p.[moe](T)p.[moe]([m5C])p.[moe](A)p.d(T)[sp].d(G)[sp].d(T)[sp].d(G)[sp].d(T)[sp].d(T)[sp].d(T)[sp].d(T)[sp].d(T)[sp].d(G)[sp].[moe](T)p.[moe](T)p.[moe]([m5C])[sp].[moe]([m5C])}$$$$ (last 3' nucleoside missing)”, the 3 h FOB score was 5 score 0-7.

Take “RNA1{[moe]([m5C])[sp].[moe](T)p.[moe](T)p.[moe]([m5C])p.[moe](A)p.d(A)[sp].d([m5C])[sp].d(T)[sp].d(A)[sp].d(A)[sp].d([m5C])[sp].d(A)[sp].d(G)[sp].d(T)[sp].d(A)[sp].[moe](T)p.[moe]([m5C])p.[moe](T)[sp].[moe](T)}$$$$ (last 3' nucleoside missing)”: the 3 h FOB score amounted to 0 score 0-7.

The substance “RNA1{[moe]([m5C])[sp].[moe](A)p.[moe](T)p.[moe](T)p.[moe](A)p.d(T)[sp].d(T)[sp].d([m5C])[sp].d(T)[sp].d([m5C])[sp].d(T)[sp].d(A)[sp].d(G)[sp].d(T)[sp].d(G)[sp].[moe]([m5C])p.[moe]([m5C])p.[moe](T)[sp].[moe](A)}$$$$ (last 3' nucleoside missing)” showed a 3 h FOB score of 4 score 0-7.

For the substance “RNA1{[moe](G)[sp].[moe]([m5C])[sp].[moe]([m5C])[sp].[moe]([m5C])[sp].[moe](A)[sp].d(T)[sp].d(G)[sp].d(G)[sp].d(A)[sp].d(T)[sp].d(G)[sp].d(G)[sp].d(T)[sp].d(T)[sp].d(G)[sp].[moe](T)[sp].[moe]([m5C])[sp].[moe](A)[sp].[moe](A)}$$$$ (last 3' nucleoside missing)”, the 3 h FOB score was 7 score 0-7.

“RNA1{[moe](T)[sp].[moe]([m5C])p.[moe](A)p.[moe](A)p.[moe]([m5C])p.d([m5C])[sp].d(A)[sp].d(A)[sp].d(T)[sp].d(T)[sp].d(T)[sp].d(G)[sp].d([m5C])[sp].d(T)[sp].d(A)[sp].[moe](T)p.[moe](T)p.[moe]([m5C])[sp].[moe](A)}$$$$ (last 3' nucleoside missing)” registered a 3 h FOB score of 2 score 0-7.

As for “RNA1{[moe](T)[sp].[moe](G)p.[moe](A)p.[moe](G)p.[moe]([m5C])p.d(T)[sp].d(A)[sp].d(T)[sp].d([m5C])[sp].d(T)[sp].d(G)[sp].d(T)[sp].d(A)[sp].d([m5C])[sp].d(A)[sp].[moe](A)p.[moe](A)p.[moe](A)[sp].[moe](T)}$$$$ (last 3' nucleoside missing)”, the 3 h FOB score stood at 6.2 score 0-7.

For the substance “RNA1{[moe](A)[sp].[moe]([m5C])[sp].[moe](A)[sp].[moe](T)[sp].[moe](T)[sp].d(T)[sp].d([m5C])[sp].d(T)[sp].d(T)[sp].d(A)[sp].d(G)[sp].d(T)[sp].d(T)[sp].d(G)[sp].d(A)[sp].[moe](A)[sp].[moe]([m5C])[sp].[moe](A)[sp].[moe](G)}$$$$ (last 3' nucleoside missing)”, the 3 h FOB score was found to be 6.5 score 0-7.

With “RNA1{[moe](A)[sp].[moe](T)p.[moe](T)p.[moe](G)p.[moe](G)p.d(T)[sp].d([m5C])[sp].d(A)[sp].d(T)[sp].d([m5C])[sp].d(T)[sp].d([m5C])[sp].d(G)[sp].d(G)[sp].d(G)[sp].[moe](T)p.[moe](A)p.[moe](T)[sp].[moe](A)}$$$$ (last 3' nucleoside missing)”, the 3 h FOB score stood at 2.8 score 0-7.

“RNA1{[moe](G)[sp].[moe](A)p.[moe](G)p.[moe](A)p.[moe](T)p.d(A)[sp].d(G)[sp].d(A)[sp].d(A)[sp].d([m5C])[sp].d(A)[sp].d([m5C])[sp].d(T)[sp].d(T)[sp].d([m5C])[sp].[moe](G)p.[moe]([m5C])p.[moe]([m5C])[sp].[moe](G)}$$$$ (last 3' nucleoside missing)” yielded a 3 h FOB score of 5 score 0-7.

Regarding “RNA1{[moe](T)[sp].[moe](A)p.[moe](T)p.[moe](T)p.[moe](G)p.d([m5C])[sp].d([m5C])[sp].d(T)[sp].d(T)[sp].d([m5C])[sp].d(A)[sp].d([m5C])[sp].d(T)[sp].d(G)[sp].d([m5C])[sp].[moe](T)p.[moe](G)p.[moe]([m5C])[sp].[moe]([m5C])}$$$$ (last 3' nucleoside missing)”, the 3 h FOB score was 3.2 score 0-7.

On to “RNA1{[moe](G)[sp].[moe](G)p.[moe](G)p.[moe]([m5C])p.[moe](A)p.d([m5C])[sp].d(A)[sp].d(G)[sp].d(T)[sp].d(A)[sp].d(G)[sp].d(T)[sp].d(G)[sp].d(G)[sp].d(T)[sp].[moe](A)p.[moe](T)p.[moe]([m5C])[sp].[moe](A)}$$$$ (last 3' nucleoside missing)”, for which the 3 h FOB score came to 5.2 score 0-7.

For the origin of these results see the OligoGym collection.
